# Experimental data published in PMC6714936 (Clinical and Applied Thrombosis/Hemostasis, 2019).
# pIC50: −log10 of the molar value.
# Biological target: factor Xa (Bos taurus, UniProt P00743)
# Assay: kinetic amidolytic
# Type: biochemical
# factor Xa, sequence (P00743 41-180): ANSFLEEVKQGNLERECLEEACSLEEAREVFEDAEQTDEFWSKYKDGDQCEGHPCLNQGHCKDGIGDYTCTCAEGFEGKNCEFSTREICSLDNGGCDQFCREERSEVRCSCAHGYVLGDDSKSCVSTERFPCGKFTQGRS
# factor Xa, sequence (P00743 234-492): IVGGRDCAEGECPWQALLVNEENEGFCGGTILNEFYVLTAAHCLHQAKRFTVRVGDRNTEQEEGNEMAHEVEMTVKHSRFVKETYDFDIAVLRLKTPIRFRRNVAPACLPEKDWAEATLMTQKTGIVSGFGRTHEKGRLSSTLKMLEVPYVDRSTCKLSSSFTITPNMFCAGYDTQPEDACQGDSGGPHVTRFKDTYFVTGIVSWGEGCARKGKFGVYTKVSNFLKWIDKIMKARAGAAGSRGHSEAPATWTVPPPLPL
compound,measurement,value
COc1ccc(NC(=O)c2ccc(C(=N)N(C)C)cc2)c(C(=O)Nc2ccc(Cl)cn2)c1 [Betrixaban],pIC50,5.54
